Assay results reported in ChEMBL document CHEMBL2321746, “Cloning, characterization, and sulfonamide and thiol inhibition studies of an α-carbonic anhydrase from Trypanosoma cruzi, the causative agent of Chagas disease” (J Med Chem, 2013).

What was measured:
Assay type in all cases: functional
Trypanosoma cruzi [1] = assay: Antitrypanosomal activity against Trypanosoma cruzi Y epimastigotes at 256 uM incubated for 48 hrs by resazurin dye reduction based ELISA method
Trypanosoma cruzi [2] = assay: Antitrypanosomal activity against Trypanosoma cruzi DM28 epimastigotes at 256 uM incubated for 48 hrs by resazurin dye reduction based ELISA method; conditions: DM28, 48 h
Trypanosoma cruzi [3] = assay: Antitrypanosomal activity against Trypanosoma cruzi DM28 epimastigotes at 128 uM incubated for 48 hrs by resazurin dye reduction based ELISA method; conditions: DM28, 48 h
Trypanosoma cruzi [4] = assay: Antitrypanosomal activity against Trypanosoma cruzi Y epimastigotes at 64 uM incubated for 48 hrs by resazurin dye reduction based ELISA method
Trypanosoma cruzi [5] = assay: Antitrypanosomal activity against Trypanosoma cruzi Y epimastigotes at 128 uM incubated for 48 hrs by resazurin dye reduction based ELISA method
Trypanosoma cruzi [6] = assay: Antitrypanosomal activity against Trypanosoma cruzi Y epimastigotes at 32 uM incubated for 48 hrs by resazurin dye reduction based ELISA method
Trypanosoma cruzi [7] = assay: Antitrypanosomal activity against Trypanosoma cruzi Y epimastigotes at 8 uM incubated for 48 hrs by resazurin dye reduction based ELISA method
Trypanosoma cruzi [8] = assay: Antitrypanosomal activity against Trypanosoma cruzi Y epimastigotes at 16 uM incubated for 48 hrs by resazurin dye reduction based ELISA method

Row | SMILES | inhibition at 256 µM (Trypanosoma cruzi [1]) [%] | inhibition at 256 µM (Trypanosoma cruzi [2]) [%] | inhibition at 128 µM (Trypanosoma cruzi [3]) [%] | inhibition at 64 µM (Trypanosoma cruzi [4]) [%] | inhibition at 128 µM (Trypanosoma cruzi [5]) [%] | inhibition at 32 µM (Trypanosoma cruzi [6]) [%] | inhibition at 8 µM (Trypanosoma cruzi [7]) [%] | inhibition at 16 µM (Trypanosoma cruzi [8]) [%]
1 | O=C(N/N=C\c1cccc(Br)c1)Nc1nnc(S)s1 | 58 | 34 |  |  |  |  |  | 
2 | C/C(=N/NC(=O)Nc1nnc(S)s1)c1ccc(Cl)cc1 | 32 | 0 |  |  |  |  |  | 
3 | C/C(CC(C)C)=N/NC(=O)Nc1nnc(S)s1 | 43 | 20 |  |  |  |  |  | 
4 | O=C(N/N=C\c1ccccc1)Nc1nnc(S)s1 | 87 | 87 | 43 | 64 | 84 |  |  | 
5 | O=C(N/N=C\c1ccc(Cl)cc1)Nc1nnc(S)s1 | 67 | 10 |  |  | 51 |  |  | 
6 | COc1cccc(/C=N\NC(=O)Nc2nnc(S)s2)c1 | 77 | 43 |  |  | 44 |  |  | 
7 | O=C(N/N=C1\C(=O)Nc2ccc(Br)cc21)Nc1n[nH]c(=S)s1 | 20 | 22 |  |  |  |  |  | 
8 | O=C(N/N=C1\C(=O)Nc2ccccc21)Nc1n[nH]c(=S)s1 | 30 | 9 |  |  |  |  |  | 
9 | O=C(Cn1ccnc1[N+](=O)[O-])NCc1ccccc1 [BENZNIDAZOLE] | 91 |  |  | 75 | 80 | 60 | 51 | 66
